Measurements taken from patent publication US11788112B2, “L-2-hydroxyglutarate and stress induced metabolism” (Memorial Sloan-Kettering Cancer Center, priority 2014, dated 2023).

What was measured:
purified human KDM4C = molecular target: T1, purified human KDM4C (Homo sapiens, UniProt Q9H3R0); test: In vitro histone demethylase assay (H3K9me3 by Western blot); format: biochemical; conditions: bulk histones, α-KG 1 mM, 37° C. for 4 hr, various concentrations
T1 construct: GST; purchased BPS Bioscience
T1 sequence (Q9H3R0 1-1056): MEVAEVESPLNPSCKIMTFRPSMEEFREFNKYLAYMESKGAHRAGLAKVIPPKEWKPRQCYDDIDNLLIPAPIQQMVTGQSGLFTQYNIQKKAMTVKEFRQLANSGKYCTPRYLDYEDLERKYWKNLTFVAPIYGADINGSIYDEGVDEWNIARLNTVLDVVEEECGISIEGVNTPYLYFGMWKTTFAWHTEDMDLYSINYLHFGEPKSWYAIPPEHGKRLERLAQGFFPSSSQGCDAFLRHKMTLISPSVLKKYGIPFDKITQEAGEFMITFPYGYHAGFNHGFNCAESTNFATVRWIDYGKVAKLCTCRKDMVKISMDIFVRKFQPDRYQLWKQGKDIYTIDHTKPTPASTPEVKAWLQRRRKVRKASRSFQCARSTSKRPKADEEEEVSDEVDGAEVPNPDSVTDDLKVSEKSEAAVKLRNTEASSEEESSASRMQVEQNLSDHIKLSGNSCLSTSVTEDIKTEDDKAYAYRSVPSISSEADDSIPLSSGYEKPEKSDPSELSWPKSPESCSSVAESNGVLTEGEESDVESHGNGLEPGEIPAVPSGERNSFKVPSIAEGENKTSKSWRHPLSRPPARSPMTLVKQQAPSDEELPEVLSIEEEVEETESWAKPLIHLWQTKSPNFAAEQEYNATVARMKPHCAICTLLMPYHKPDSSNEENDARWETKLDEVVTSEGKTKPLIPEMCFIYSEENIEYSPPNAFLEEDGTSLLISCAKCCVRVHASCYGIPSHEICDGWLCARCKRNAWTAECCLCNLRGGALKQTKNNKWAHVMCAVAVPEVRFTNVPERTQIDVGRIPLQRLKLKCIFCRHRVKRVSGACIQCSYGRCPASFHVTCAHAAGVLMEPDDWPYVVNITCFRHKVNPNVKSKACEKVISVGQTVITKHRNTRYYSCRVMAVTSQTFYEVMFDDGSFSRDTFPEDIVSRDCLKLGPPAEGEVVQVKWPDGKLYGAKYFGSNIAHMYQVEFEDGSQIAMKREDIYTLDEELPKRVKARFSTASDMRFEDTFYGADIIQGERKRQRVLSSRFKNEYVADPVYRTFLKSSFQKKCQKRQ

KDM4C = molecular target: T2, KDM4C (Homo sapiens, UniProt Q9H3R0); conditions: prior reports (Chowdhury et al., 2011; Lu et al., 2012); cited from earlier work
T2 sequence (Q9H3R0 1-1056): T1 sequence (Q9H3R0 1-1056)

SF188 cells = test: Intracellular 2HG by GC-MS in SF188 cells supplemented with cell-permeable α-KG; format: cell-based, human; conditions: 48 hr, 5 mM dimethyl-α-KG vs vehicle (DMSO)
Experimental: FIG. 2 depicts quantified results of GC-MS histograms showing that hypoxia-induced L-2HG originates from glutamine-derived α-ketoglutarate. Panels in (A and B) are line-drawings showing the fraction of intracellular 2HG labeled by ^13C at the indicated time. Isotope tracing was performed in SF188 cells cultured in medium containing either [U-^13C]glucose or [U-^13C]glutamine. […] Panels in (C) are bar graphs showing normalized 2HG. SF188 cells were cultured for 48 hr in 21% or 0.5% O2 in the presence of vehicle (DMSO) or 5 mM dimethyl-α-KG. Total intracellular 2HG was assessed by GC-MS. […] Representative data from 1 of 3 independent experiments are shown. Panels in (D and E) are GC-MS histograms showing 2HG ions in different conditions. SF188 cells were cultured as in (C), then chiral derivatization of metabolites was performed to allow separation of 2HG enantiomers by GC-MS. Panels in (D) show an overlay of GC-MS histograms for 2HG on the same scale. […]
Metabolites were extracted with 1 mL ice-cold 80% methanol supplemented with 2 micromolar deuterated 2-hydroxyglutarate (D-2-hydroxyglutaric-2,3,3,4,4-d5 acid; deuterated-D-2HG) as an internal standard. […] Samples were analyzed using an Agilent 7890A GC coupled to Agilent 5975C mass selective detector. […] Ions used for quantification of metabolite levels were 2HG m/z 247 and deuterated-2HG m/z 252. […]

| Compound | inhibition of KDM4C demethylation of H3K9me3 (purified human KDM4C) | inhibition of KDM4C (KDM4C) | increase in intracellular 2HG (SF188 cells; hypoxia (0.5% O2), confirmed to be L-2HG by chiral derivatization) | increase in intracellular 2HG (SF188 cells; normoxia (21% O2)) |
| --- | --- | --- | --- | --- |
| O=C(O)CC[C@H](O)C(=O)O [L-2HG, L-2-hydroxyglutarate] | sensitive to inhibition by L-2HG, in a dose dependent manner | roughly comparable inhibition | – | – |
| COC(=O)CCC(=O)C(=O)OC [dimethyl-α-KG, dimethyl alpha-ketoglutarate] | – | – | ~100 fold | modest increase |
| D-2-hydroxyglutarate [D-2HG] | – | roughly comparable inhibition | – | – |
